Biological target: T1, PPARα (Homo sapiens, UniProt Q07869)
T1 construct: GAL4 (pM vector); expressed in transfected cells; host or cells: CV-1 cells (African green monkey kidney)
T1 sequence (Q07869 1-468): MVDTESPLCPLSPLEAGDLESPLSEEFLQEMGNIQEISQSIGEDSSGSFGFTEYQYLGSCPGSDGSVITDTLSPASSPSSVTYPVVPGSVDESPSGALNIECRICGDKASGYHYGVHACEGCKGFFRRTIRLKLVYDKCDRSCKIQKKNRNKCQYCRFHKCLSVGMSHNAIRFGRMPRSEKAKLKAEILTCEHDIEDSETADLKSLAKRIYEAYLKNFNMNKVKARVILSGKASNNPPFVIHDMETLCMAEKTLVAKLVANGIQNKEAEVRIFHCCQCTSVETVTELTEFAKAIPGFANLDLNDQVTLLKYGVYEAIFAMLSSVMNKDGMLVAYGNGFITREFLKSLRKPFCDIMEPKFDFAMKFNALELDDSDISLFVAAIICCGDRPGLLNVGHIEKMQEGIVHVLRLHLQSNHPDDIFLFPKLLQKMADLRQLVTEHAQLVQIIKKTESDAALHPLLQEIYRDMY
Assay: PPARα ligand activity, GAL4-hPPARα luciferase reporter assay in CV-1 cells
Type: cell-based
Conditions: for PPARα ligand activity: 24 h, relative to non-treatment control (DMSO) = 100, average ± standard error
Description: CV-1 cells (cultured cells derived from kidneys of male African green monkeys) were implanted on 24-well culture plates so as to be […] and cultured at 37° C. in 5% CO2 for 24 hours. As a medium, DMEM (Dulbecco's Modified Eagle Medium; manufactured by GIBCO) containing 10% FBS (fetal bovine serum) and a 10 mg/mL penicillin streptomycin solution was used. Using the Lipofectamine system (trade name; manufactured by Invitrogen Corporation), pM-hPPARγ and p4× UASg-tk-luc were transfected. The above-noted pM-hPPARγ was a chimeric protein-expression plasmid binding GAL4 gene (amino acid sequence 1-147) and human PPARγ ligand-binding site gene (amino acid sequence 204-505), whereas the above-noted p4× UASg-tk-luc was a reporter plasmid containing four copies of a responsive element (UAS) of GAL 4 upstream of a luciferase gene. About 24 hours after the transfection, samples of aurapten at respective concentrations (0.1, 1.0, 10, 50 and 100 μM) were added to the above-described media, followed by 24 hour incubation. The above-noted samples were prepared by dissolving aurapten in dimethyl sulfoxide (DMSO). Instead of the aurapten, DMSO was added to non-treated control media. After the incubation, measurement was made using a Dual-Luciferase Reporter Gene Assay system (trade name; manufactured by Promega Corporation).
Similarly to the measurement group, as a control group, pM (a plasmid from which PPARγ ligand-binding site gene was removed) was used for measurement instead of pM-hPPARγ. For each sample, the ratio between average luminescence intensities of the measurement group and the control group (n=4) (measurement group/control group) was calculated, and an activity relative to the non-treatment control was determined as the PPARγ ligand activity of the sample.
The PPARα ligand activity of aurapten was measured similarly to Example 1 except that pM-hPPARα was used instead of pM-hPPARγ and the aurapten concentrations were set to 0.1, 1.0, 10, 50 and 80 μM.

CC(C)=CCC/C(C)=C/COc1ccc2ccc(=O)oc2c1 [Aurapten, aurapten]
effect on PPARα activity (in words) (0.1-80 μM, increased in keeping with the concentration): improved the activity of PPARα
PPARα ligand activity (aurapten 0.1 μM): 234 ± 39.4
PPARα ligand activity (aurapten 1.0 μM): 139 ± 38.3
PPARα ligand activity (aurapten 10 μM): 302 ± 98.2
PPARα ligand activity (aurapten 50 μM): 409 ± 27.8
PPARα ligand activity (aurapten 80 μM): 1052 ± 232.9

— patent US8802723B2, “Metabolic syndrome-improving agent and medicine, supplement, functional food and food additive containing the same” (ARKRAY, Inc., priority 2005, dated 2014)
